Data taken from US20220168322A1, “NOVEL STAT3 INHIBITORS IDENTIFIED BY STRUCTURE-BASED VIRTUAL SCREENING INCORPORATING SH2 DOMAIN FLEXIBILITY” (Board of Regents, The University of Texas System, priority 2018, published 2022).
Where two headings read alike, the source gives them in different places.

Experiments:
[1] = tested on: MDA-MB-231 cells; experiment: Anchorage-independent and dependent cell growth (MTT), MDA-MB-231; format: cell-based; conditions: NA = No Activity
Experimental: (§1) MDA-MB-231 cells were cultured for 48 hrs in complete DMEM with 10% FBS±compound (0/0.1/0.3/1/3/10/100 μM) in cell-culture-treated plates and viable cells quantitated using MTT. Relative % viability (viability after any treatment÷viability of untreated cells×100) was plotted as a function of Log [M] compound, and IC50 values calculated using GraphPad.
as §1, with “72” for “48”, “cell-culture-treated ultra-low attachment 96-well” for “cell-culture-treated”
(§2) Anchorage-independent and dependent cell growth. Cells were cultured in triplicates in complete DMEM±drug, in ultra-low attachment 96 well plates for 72 hrs or cell-culture treated plates for 48 hrs and viable cells were quantitated using MTT. Optical density (OD) was measured at 590 nm using a 96-well multi-scanner (Synergy H1 microplate reader, BioTek Inc, VT, USA). Relative % viability (viability after any treatment÷viability of untreated cells×100) was plotted along Y-axis. At least 2 replicates experiments were performed and were used for IC50 calculation using GraphPad software.

[2] = target: T1, STAT3 (aa 127-722) (Homo sapiens, UniProt P40763); experiment: SPR assay of STAT3 binding to immobilized EGFR pY1068 phosphododecapeptide; conditions: for inhibition at 10 µM / inhibition at 100 µM / inhibition of STAT3 binding to EGFR pY-peptide: SPR; for inhibition at 10 µM / inhibition at 100 µM: read-out: inhibition of STAT3 binding to EGFR pY-peptide; for % of max binding at 10 μm: pEGFRp-STAT3 binding (SPR) at pH 8, compound 10 μm; for % of max binding at 100 μm: pEGFRp-STAT3 binding (SPR) at pH 8, compound 100 μm; for inhibition at 100 µM / inhibition of STAT3 binding to EGFR pY-peptide: 100 μM
T1 construct: STAT3 (aa 127-722) at a concentration of 200 nM
T1 sequence (P40763 127-722 isoform P40763-3 limits assumed, species assumed): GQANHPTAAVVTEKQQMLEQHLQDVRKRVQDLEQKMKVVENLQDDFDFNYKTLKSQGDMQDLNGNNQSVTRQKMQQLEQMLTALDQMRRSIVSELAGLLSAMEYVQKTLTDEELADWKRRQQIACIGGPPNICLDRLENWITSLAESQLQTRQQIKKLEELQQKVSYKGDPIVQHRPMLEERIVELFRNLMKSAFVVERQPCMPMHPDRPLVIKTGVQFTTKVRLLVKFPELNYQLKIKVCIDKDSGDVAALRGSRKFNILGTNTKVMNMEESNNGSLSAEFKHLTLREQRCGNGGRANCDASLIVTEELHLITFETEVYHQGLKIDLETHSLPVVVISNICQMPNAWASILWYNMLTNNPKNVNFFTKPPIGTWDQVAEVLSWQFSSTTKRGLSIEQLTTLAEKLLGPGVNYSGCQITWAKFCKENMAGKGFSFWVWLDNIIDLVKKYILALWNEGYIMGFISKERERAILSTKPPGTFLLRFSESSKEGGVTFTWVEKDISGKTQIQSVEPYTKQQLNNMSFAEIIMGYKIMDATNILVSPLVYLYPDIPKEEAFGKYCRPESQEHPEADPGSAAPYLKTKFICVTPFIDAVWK
Experimental: Surface plasmon resonance (SPR) assay of STAT3 binding pY-peptide. STAT3 (aa 127-722) at a concentration of 200 nM in 20 mM Tris buffer (pH 8) was pre-incubated without or with compounds prior to injection onto an SA chip immobilized with phosphorylated and control non-phosphorylated biotinylated EGFR derived dodecapeptides based on sequence surrounding Y1068 (Shao et al., 2004), on a Biacore 3000 biosensor (Biacore inc., Piscataway N.J.) and analyzed as described (Bharadwaj et al., 2016).
Surface Plasmon Resonance (SPR) was performed on the 24 compounds to determine their ability to block binding of purified STAT3 to an immobilized phosphododecapeptide based on EGFR Y1068 (EGFR pY-peptide), as described (Xu et al., 2009).

[3] = tested on: G-CSF-stimulated pSTAT3; experiment: Inhibition of G-CSF-stimulated pSTAT3 in Kasumi-1 cells (Luminex, pSTAT3/GAPDH); format: cell-based; conditions: for activity at 10 µM: Kasumi 1, read-out: % of Control Stimulated pSTAT3; for activity at 10 µM / % of Control Stimulated pSTAT3: single concentration of 10 μM, G-CSF 100 ng/ml, pSTAT3/GAPDH relative to DMSO treated cells; for inhibition at 10 µM: Kasumi-1 cells, read-out: inhibition of G-CSF-induced pY-STAT3
Experimental: […] Total protein was assayed for pSTAT3 and GAPDH levels by Luminex. GAPDH-normalized pSTAT3 values were divided by the same for untreated cells and expressed as percentage. These values were plotted as a function of Log [M] compound, and IC50 calculated using GraphPad. Data from representative experiments from at least two repeats is shown.
Luminex bead-based assay. Luminex bead-based assays were used to determine levels of pSTAT3, pSTAT1, pSTAT5, and GAPDH, as described (Bharadwaj et al., 2015). […]

[4] = tested on: MDA-MB-468 cells; experiment: Anchorage-independent and dependent cell growth (MTT), MDA-MB-468; format: cell-based; conditions: NA = No Activity
Experimental: as §1, with “MDA-MB-468” for “MDA-MB-231”
as §1, with “MDA-MB-468” for “MDA-MB-231”, “72” for “48”, “cell-culture-treated ultra-low attachment 96-well” for “cell-culture-treated”, “treatment viability” for “treatment÷viability”
as §2

[5] = Homo sapiens, MDA-MB-231, 48 h, anchorage dependent, cell-culture treated plates, 48 hrs, read-out: Growth AD IC50 231
[6] = anchorage dependent, cell-culture treated plates, 48 hrs, read-out: Growth AD IC50 231
[7] = Homo sapiens, MDA-MB-468, 48 h, anchorage dependent, cell-culture treated plates, 48 hrs, read-out: Growth AD IC50 468
[8] = Homo sapiens, MDA-MB-468, 72 h, anchorage independent, ultra-low attachment plates, 72 hrs, read-out: Growth AI IC50 468
[9] = anchorage dependent, cell-culture treated plates, 48 hrs, read-out: Growth AD IC50 468
[10] = Homo sapiens, MDA-MB-231, 72 h, anchorage independent, ultra-low attachment plates, 72 hrs, read-out: Growth AI IC50 231
[11] = Kasumi1 cells, G-CSF induced pSTAT3/GAPDH by Luminex
[12] = anchorage dependent, cell-culture treated plates, 48 hrs
[13] = anchorage independent, ultra-low attachment plates, 72 hrs

SMILES | IC50 [1, 5] [µM] | IC50 [1, 6] [µM] | inhibition at 10 µM [2] [%] | inhibition at 100 µM [2] [%] | % of max binding at 10 μm [2] [%] | % of max binding at 100 μm [2] [%] | IC50 [4, 7] [µM] | IC50 [4, 8] [µM] | IC50 [4, 9] [µM] | IC50 [1, 10] [µM] | activity at 10 µM ([3]; Homo sapiens, Kasumi1 cells) [%] | inhibition at 10 µM ([3]; Homo sapiens) [%] | other results
CC(=O)Nc1nc(C)c(-c2csc(Nc3ccccc3)n2)s1 [SPEC-93, N-(2-aniline-4′-methyl-4,5′-bi-1,3-thiazol-2′-yl)acetamide] | – | – | 29 to 71 | 67 to 93 | 116.8 | 28.3 | – | – | – | 15.7 ± 1.3 | 0 | 20 to 80 | –
COc1ccc(Br)cc1/C=C/C(=O)c1ccc(NC(C)=O)cc1 [SPEC-29, N-(4-[(E)-3-(5-bromo-2-methoxyphenyl)prop-2-enoyl)phenyl]acetamide] | 3 to 12.2 | 3 ± 2.2 | 29 to 71 | 67 to 93 | 69.6 | 22.1 | 2.4 to 12.1 | 1.8 to 11.1 | 2.4 ± 2.5 | 9.5 ± 4.1 | 0 | 20 to 80 | inhibition of STAT3 binding to EGFR pY-peptide [2]: 78%; IC50 [3, 11]: 2.7 µM; IC50 ([4]; anchorage independent, ultra-low attachment plates, 72 hrs, read-out: Growth AI IC50 468): 1.8 ± 1.6 µM
Cc1cc(NS(=O)(=O)c2ccc(NC(=O)COc3ccc(C(C)(C)c4ccccc4)cc3)cc2)nc(C)n1 [SPEC-106, N-(4-{[(2,6-dimethyl-4-pyrimidinyl)amino]sulfonyl}phenyl)-2-[4-(1-methyl-1-phenylethyl)phenoxy]acetamide] | 25.6 to 65.2 | 39 | 29 to 71 | 67 to 93 | 68.9 | 20.4 | 25.6 to 65.2 | 34.9 ± 1.3 | 44.7 | 38.9 | 1 | 20 to 80 | –
CCOc1ccc(N(C(C)C(=O)Nc2cccc(Cl)c2C)S(C)(=O)=O)cc1 (centres unmarked) [SPEC-86] | – | – | – | – | 120.1 | 59.1 | – | – | – | – | – | – | % of Control Stimulated pSTAT3 ([3]; Kasumi1 cells): 5%
CS(=O)(=O)c1ccc2nc(NC(=O)c3cccc(Cn4cc(Cl)cn4)c3)sc2c1 [SPEC-66] | – | – | – | – | 57.2 | 15.9 | – | – | – | – | – | – | % of Control Stimulated pSTAT3 ([3]; Kasumi1 cells): 48%

Now from value to compound, other results behind:

IC50 [1, 5] [µM] | IC50 [1, 6] [µM] | inhibition at 10 µM [2] [%] | inhibition at 100 µM [2] [%] | % of max binding at 10 μm [2] [%] | % of max binding at 100 μm [2] [%] | IC50 [4, 7] [µM] | IC50 [4, 8] [µM] | IC50 [4, 9] [µM] | IC50 [1, 10] [µM] | SMILES | activity at 10 µM ([3]; Homo sapiens, Kasumi1 cells) [%] | inhibition at 10 µM ([3]; Homo sapiens) [%] | other results
25.6 to 65.2 | 25.6 ± 3.9 | 29 to 71 | 67 to 93 | 70.4 | 7.8 | 25.6 to 65.2 | 64.1 ± 3.1 | 32.5 ± 3.7 | – | COc1cc(/C=C2/SC(=O)NC2=O)ccc1OCc1ccc(Cl)cc1Cl [SPEC-98] | 20 | 20 to 80 | –
– | – | 29 to 71 | – | 67.3 | 9.5 | – | – | – | – | O=C(O)COc1c(Br)cc(/C=C2\SC(=O)N(CC(=O)N3CCN(c4ccccc4)CC3)C2=O)cc1Br [SPEC-85, [2,6-dibromo-4-({2,4-dioxo-3-[2-oxo-2-(4-phenyl-1-piperazinyl)ethyl]-1,3-thiazolidin-5-ylidene}methyl)phenoxy]acetic acid] | 2 | 20 to 80 | Growth AD IC50 231 [1, 12]: no activity; Growth AI IC50 231 [1, 13]: no activity; inhibition of STAT3 binding to EGFR pY-peptide [2]: 95%; IC50 ([3]; Homo sapiens, Kasumi 1, Kasumi1 cells, G-CSF induced pSTAT3/GAPDH by Luminex): > 100 µM; G-CSF pSTAT3 IC50 [3, 11]: almost no activity; Growth AD IC50 468 [4, 12]: no activity; Growth AI IC50 468 [4, 13]: no activity
– | – | 29 to 71 | 67 to 93 | 49.1 | 30.3 | – | – | – | 26.1 | COc1ccc(/C=C/C(=O)c2cc(Br)ccc(=O)c2O)cc1 [SPEC-8, 5-bromo-2-hydroxy-3-[3-(4-methoxyphenyl)acryloyl]-2,4,6-cycloheptatrien-1-one] | 0 | 20 to 80 | IC50 [3, 11]: 4.1 µM
